Measured values: patent publication US12391683B2, “Therapeutic compounds and methods” (Actio Biosciences, Inc., priority 2022, dated 2025)

Key:
[1] = target: T1, TRPC4 channels (Homo sapiens, UniProt Q9UBN4); experiment: TRP Family FLIPR Assay, TRPC4; type: cell-based; conditions: HEK293 cells
T1 construct: expressed in transfected cells; host or cells: HEK293
T1 sequence (Q9UBN4 1-977): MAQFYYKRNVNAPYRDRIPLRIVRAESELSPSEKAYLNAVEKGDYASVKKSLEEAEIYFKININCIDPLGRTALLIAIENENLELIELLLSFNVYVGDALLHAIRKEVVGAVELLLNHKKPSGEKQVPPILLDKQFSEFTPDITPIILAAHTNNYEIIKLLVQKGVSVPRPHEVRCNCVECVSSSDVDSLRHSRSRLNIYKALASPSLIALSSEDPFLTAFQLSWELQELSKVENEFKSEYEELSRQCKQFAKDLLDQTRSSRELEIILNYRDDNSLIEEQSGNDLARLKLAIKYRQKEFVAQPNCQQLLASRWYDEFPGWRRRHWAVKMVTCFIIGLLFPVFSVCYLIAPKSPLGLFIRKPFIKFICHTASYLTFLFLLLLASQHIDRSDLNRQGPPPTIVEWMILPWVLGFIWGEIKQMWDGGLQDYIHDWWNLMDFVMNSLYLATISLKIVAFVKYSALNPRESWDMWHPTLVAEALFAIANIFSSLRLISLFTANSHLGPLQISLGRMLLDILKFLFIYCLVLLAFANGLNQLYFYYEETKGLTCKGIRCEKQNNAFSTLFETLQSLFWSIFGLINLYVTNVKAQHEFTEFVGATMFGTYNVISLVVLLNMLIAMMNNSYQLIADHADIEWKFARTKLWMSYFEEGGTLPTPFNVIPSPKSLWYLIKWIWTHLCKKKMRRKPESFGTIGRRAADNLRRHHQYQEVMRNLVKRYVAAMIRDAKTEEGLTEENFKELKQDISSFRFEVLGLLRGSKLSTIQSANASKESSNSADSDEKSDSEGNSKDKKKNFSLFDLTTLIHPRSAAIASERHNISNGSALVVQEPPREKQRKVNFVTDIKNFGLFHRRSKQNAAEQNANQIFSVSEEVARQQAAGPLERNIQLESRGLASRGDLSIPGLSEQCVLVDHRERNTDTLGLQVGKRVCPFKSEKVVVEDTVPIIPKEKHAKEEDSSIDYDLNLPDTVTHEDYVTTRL
Procedure: (§1) The compound of Example 5 was tested for selectivity against a panel of Human TRP family ion channels in a TRP Family FLIPR Assay as described below. • 1. TRPC3 channels (human TRPC3 variant 1 gene, expressed in HEK293 cells). • 2. TRPC4 channels (human TRPC4 gene, expressed in HEK293 cells). • 3. TRPC5 channels (human TRPC5 gene, expressed in HEK293 cells). • 4. TRPC6 channels (human TRPC6 gene, expressed in HEK293 cells). • 5. TRPM2 channels (human TRPM2 gene, transiently expressed in HEK293 cells). • 6. TRPM3 channels (human TRPM3 gene, transiently expressed in HEK293 cells). • 7. TRPM4 channels (human TRPM4 gene, expressed in CHO cells). • 8. […]
(§2) Data acquisition was performed via the FLIPR Control software supplied with the FLIPR System (MDS-AT) and data was analyzed using Microsoft Excel (Microsoft Corp., Redmond, WA) or GraphPad Prism. […]
(§3) [formula] where Base is the response at low concentrations of test article, Max is the maximum response at high concentrations, xhalf the EC50, or IC50, the concentration of test article producing either half-maximal activation or inhibition, and rate is the Hill coefficient. […] No assumptions about the fit parameters was made; the fit parameters were determined by the algorithm.
(§4) The effect of each test article was evaluated at eight (8) concentrations: 0.003, 0.01, 0.03, 0.1, 0.3, 1, 3 and 10 μM, n≤4 wells/concentration). […]

[2] = target: T2, TRPV5 channels (Homo sapiens, UniProt Q9NQA5); experiment: TRP Family FLIPR Assay, TRPV5; type: cell-based; conditions: antagonist mode; activated with 60 μM cadmium ion; HEK293 cells (transient); 0.003-10 μM; read-out: IC50 hTRPV5
T2 construct: expressed in transfected cells; host or cells: HEK293 (transient)
Procedure: as §1, §2, §3, §4

[3] = tested on: Hepatocytes; experiment: Hepatocytes predicted clearance, human

T2 sequence (Q9NQA5 whole entry): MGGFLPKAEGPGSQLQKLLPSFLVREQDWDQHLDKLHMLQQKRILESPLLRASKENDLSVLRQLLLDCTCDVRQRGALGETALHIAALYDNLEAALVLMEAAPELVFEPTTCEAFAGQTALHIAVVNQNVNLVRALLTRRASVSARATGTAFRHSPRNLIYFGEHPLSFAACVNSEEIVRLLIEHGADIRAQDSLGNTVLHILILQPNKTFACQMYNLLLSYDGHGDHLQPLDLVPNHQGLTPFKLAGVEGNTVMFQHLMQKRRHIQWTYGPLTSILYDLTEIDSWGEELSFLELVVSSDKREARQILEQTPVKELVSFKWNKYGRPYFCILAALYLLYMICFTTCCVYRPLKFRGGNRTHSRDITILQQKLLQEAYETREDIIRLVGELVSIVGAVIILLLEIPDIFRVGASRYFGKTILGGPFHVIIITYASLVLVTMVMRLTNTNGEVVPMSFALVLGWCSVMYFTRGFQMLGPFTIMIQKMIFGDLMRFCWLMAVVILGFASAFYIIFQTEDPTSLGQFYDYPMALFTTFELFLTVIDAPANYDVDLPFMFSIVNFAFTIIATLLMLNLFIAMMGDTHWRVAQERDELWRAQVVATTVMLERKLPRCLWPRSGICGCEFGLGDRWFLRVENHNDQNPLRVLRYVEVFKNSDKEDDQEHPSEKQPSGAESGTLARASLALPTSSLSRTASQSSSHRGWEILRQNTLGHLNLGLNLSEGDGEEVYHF

CC(C)(O)c1cnc(N2C[C@@]3(CC[C@@H](F)[C@](C)(Cn4cnc5ccc(C#N)cc54)C3)OC2=O)cn1 (single isomer, unassigned) [Example 5]
EC50 ([1]; agonist mode, vs EMAX of (−)-Englerin A 30 μM, read-out: EC50 hTRPC4): > 10 µM
IC50 ([1]; antagonist mode, activated with 0.5 μM (−)-Englerin A, 0.003-10 μM, read-out: IC50 hTRPC4): > 1 µM
IC50 [2]: > 10 µM
Hepatocytes predicted clearance in human [3]: < 0.17 mL/min/kg
